Experimental data taken from patent US10214519B2, “Phosphatidylinositol 3-kinase inhibitors” (Gilead Sciences, Inc., priority 2016, dated 2019).

These molecules were tested against PI3Kβ (Homo sapiens (Human), UniProt P42338) (assay: PI3K isoform TR-FRET enzymatic assay (PI3Kβ)). Conditions: 2× Km ATP, 30 minutes at 25° C.
Format: biochemical
In short: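 IC50 came from four-parameter dose-response fits, normalized between DMSO and 1 μM wortmannin controls. The read-out was TR-FRET (615/665 nm) of PIP3 displacing fluorescent PIP3 from Europium GRP-1 after 10 mM EDTA termination. Compounds were incubated with purified heterodimeric PI3Kβ for 30 min at 25° C.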

Sequence of PI3Kβ (P42338 whole entry, canonical isoform): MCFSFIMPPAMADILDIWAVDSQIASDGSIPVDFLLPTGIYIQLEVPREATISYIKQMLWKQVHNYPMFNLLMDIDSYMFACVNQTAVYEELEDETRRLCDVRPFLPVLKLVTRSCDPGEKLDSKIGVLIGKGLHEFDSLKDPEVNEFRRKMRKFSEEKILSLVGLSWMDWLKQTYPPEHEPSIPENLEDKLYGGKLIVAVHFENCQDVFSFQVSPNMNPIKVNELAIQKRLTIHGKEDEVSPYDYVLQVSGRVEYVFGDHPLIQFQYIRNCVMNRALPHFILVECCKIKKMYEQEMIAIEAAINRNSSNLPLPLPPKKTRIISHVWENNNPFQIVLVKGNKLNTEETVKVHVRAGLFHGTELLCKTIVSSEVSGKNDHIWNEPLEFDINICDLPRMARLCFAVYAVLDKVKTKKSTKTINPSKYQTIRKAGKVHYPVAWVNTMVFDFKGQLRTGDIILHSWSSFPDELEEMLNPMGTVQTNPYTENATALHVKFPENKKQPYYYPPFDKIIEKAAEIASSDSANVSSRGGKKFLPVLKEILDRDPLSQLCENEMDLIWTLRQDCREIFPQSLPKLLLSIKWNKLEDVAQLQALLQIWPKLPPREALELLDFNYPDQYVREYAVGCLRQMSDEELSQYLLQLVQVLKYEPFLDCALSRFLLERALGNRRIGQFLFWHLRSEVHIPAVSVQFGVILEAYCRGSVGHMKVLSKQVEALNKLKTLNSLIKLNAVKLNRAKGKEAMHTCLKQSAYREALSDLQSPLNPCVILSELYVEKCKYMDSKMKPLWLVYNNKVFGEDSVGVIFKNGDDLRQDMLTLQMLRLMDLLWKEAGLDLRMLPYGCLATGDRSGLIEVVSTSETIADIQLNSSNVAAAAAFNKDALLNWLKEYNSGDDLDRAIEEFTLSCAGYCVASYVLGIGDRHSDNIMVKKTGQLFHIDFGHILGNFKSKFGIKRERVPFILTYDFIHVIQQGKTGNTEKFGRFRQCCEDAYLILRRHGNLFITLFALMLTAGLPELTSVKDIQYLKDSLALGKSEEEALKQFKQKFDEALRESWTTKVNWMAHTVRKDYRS
Sequence of PI3Kβ (P27986 whole entry partner, canonical isoform): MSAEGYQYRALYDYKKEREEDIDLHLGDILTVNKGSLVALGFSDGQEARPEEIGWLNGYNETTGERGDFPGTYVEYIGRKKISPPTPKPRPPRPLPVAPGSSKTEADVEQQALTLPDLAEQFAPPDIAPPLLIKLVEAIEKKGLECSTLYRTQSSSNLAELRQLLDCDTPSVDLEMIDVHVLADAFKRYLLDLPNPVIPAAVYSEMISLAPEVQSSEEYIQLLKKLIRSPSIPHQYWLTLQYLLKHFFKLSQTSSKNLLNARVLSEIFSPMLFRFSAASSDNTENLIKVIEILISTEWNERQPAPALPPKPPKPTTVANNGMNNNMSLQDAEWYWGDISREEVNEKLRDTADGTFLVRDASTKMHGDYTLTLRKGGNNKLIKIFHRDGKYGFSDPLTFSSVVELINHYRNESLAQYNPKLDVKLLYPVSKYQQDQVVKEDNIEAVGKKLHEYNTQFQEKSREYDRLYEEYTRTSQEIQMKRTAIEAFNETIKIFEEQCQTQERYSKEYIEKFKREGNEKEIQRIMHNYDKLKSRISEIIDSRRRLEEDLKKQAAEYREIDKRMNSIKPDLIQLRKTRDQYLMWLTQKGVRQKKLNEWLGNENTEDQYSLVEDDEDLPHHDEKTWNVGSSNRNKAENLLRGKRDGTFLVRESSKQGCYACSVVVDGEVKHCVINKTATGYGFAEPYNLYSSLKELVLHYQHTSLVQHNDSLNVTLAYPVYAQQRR

Row | SMILES | IC50 [nM]
1 | Clc1cccc2c(-n3c(-c4ccn[nH]4)nc4c(-c5nnc[nH]5)cc(N5CCOCC5)cc43)ccnc12 [Example 117, 4-[3-(8-chloroquinolin-4-yl)-2-(1H-pyrazol-5-yl)-7-(4H-1,2,4-triazol-3-yl)benzimidazol-5-yl]morpholine] | 15
2 | Clc1cccc2c(-n3c(-c4cnsc4)nc4c(-c5nnc[nH]5)cc(N5CCOCC5)cc43)ccnc12 [Example 118, 4-[3-(8-chloroquinolin-4-yl)-2-(1,2-thiazol-4-yl)-7-(4H-1,2,4-triazol-3-yl)benzimidazol-5-yl]morpholine] | 52
3 | Clc1cccc2c(-n3c(-c4cncs4)nc4c(-c5nnc[nH]5)cc(N5CCOCC5)cc43)ccnc12 [Example 119, 4-[3-(8-chloroquinolin-4-yl)-2-(1,3-thiazol-5-yl)-7-(4H-1,2,4-triazol-3-yl)benzimidazol-5-yl]morpholine] | 24
4 | Clc1cccc2c(-n3c(-c4cn[nH]c4)nc4c(-c5nnc[nH]5)cc(N5CCOCC5)cc43)ccnc12 [Example 120, 4-[3-(8-chloroquinolin-4-yl)-2-(1H-pyrazol-4-yl)-7-(4H-1,2,4-triazol-3-yl)benzimidazol-5-yl]morpholine] | 27
5 | Cn1cc(-c2nc3c(-c4nnc[nH]4)cc(N4CCOCC4)cc3n2-c2ccnc3c(Cl)cccc23)cn1 [Example 121, 4-[3-(8-chloroquinolin-4-yl)-2-(1-methylpyrazol-4-yl)-7-(4H-1,2,4-triazol-3-yl)benzimidazol-5-yl]morpholine] | 44
6 | Fc1ccc(F)c2c(-n3c(C4COC4)nc4c(-c5nnc[nH]5)cc(N5CCOCC5)cc43)ccnc12 [Example 123, 4-[3-(5,8-difluoroquinolin-4-yl)-2-(oxetan-3-yl)-7-(4H-1,2,4-triazol-3-yl)benzimidazol-5-yl]morpholine] | 110
7 | Cc1ccc(F)c2c(-n3c(C)nc4c(-c5nnc[nH]5)cc(N5CCOCC5)cc43)ccnc12 [Example 124, 4-[3-(5-fluoro-8-methylquinolin-4-yl)-2-methyl-7-(4H-1,2,4-triazol-3-yl)benzimidazol-5-yl]morpholine] | 9
8 | CCc1nc2c(-c3nnc[nH]3)cc(N3CCOCC3)cc2n1-c1ccnc2c(F)ccc(F)c12 [Example 125, 4-[3-(5,8-difluoroquinolin-4-yl)-2-ethyl-7-(4H-1,2,4-triazol-3-yl)benzimidazol-5-yl]morpholine] | 16
9 | Cc1nc2c(-c3nnc[nH]3)cc(N3CCOCC3)cc2n1-c1ccnc2c(F)ccc(Cl)c12 [Example 126, 4-[3-(5-chloro-8-fluoroquinolin-4-yl)-2-methyl-7-(4H-1,2,4-triazol-3-yl)benzimidazol-5-yl]morpholine] | 21
10 | Cc1cccc2nccc(-n3cnc4c(-c5nnc[nH]5)cc(N5CCOCC5)cc43)c12 [Example 127, 4-[3-(5-methylquinolin-4-yl)-7-(4H-1,2,4-triazol-3-yl)benzimidazol-5-yl]morpholine] | 23
11 | Cc1nc2c(-c3nnc[nH]3)cc(N3CCOCC3)cc2n1-c1c(Cl)cnc2ccccc12 [Example 128, 4-[3-(3-chloroquinolin-4-yl)-2-methyl-7-(4H-1,2,4-triazol-3-yl)benzimidazol-5-yl]morpholine] | 51
12 | Cc1nnc(-c2cc(N3CCOCC3)cc3c2nc(C)n3-c2ccnc3c(Cl)cccc23)[nH]1 [Example 129, 4-[3-(8-chloroquinolin-4-yl)-2-methyl-7-(5-methyl-4H-1,2,4-triazol-3-yl)benzimidazol-5-yl]morpholine] | 23
13 | Cc1nnc(-c2cc(N3CCOCC3)cc3c2nc(C)n3-c2ccnc3c(F)cccc23)[nH]1 [Example 130, 4-[3-(8-fluoroquinolin-4-yl)-2-methyl-7-(5-methyl-4H-1,2,4-triazol-3-yl)benzimidazol-5-yl]morpholine] | 87
14 | Cc1nc2c(-c3nnc[nH]3)cc(N3CCOCC3)cc2n1-c1ccnc2cc(F)cc(F)c12 [Example 131, 4-[3-(5,7-difluoroquinolin-4-yl)-2-methyl-7-(4H-1,2,4-triazol-3-yl)benzimidazol-5-yl]morpholine] | 46
15 | Clc1cccc2c(-n3c(C4CNC4)nc4c(-c5nnc[nH]5)cc(N5CCOCC5)cc43)ccnc12 [Example 132, 4-[2-(azetidin-3-yl)-3-(8-chloroquinolin-4-yl)-7-(4H-1,2,4-triazol-3-yl)benzimidazol-5-yl]morpholine] | 380
16 | CCc1nc2c(-c3nnc(C)[nH]3)cc(N3CCOCC3)cc2n1-c1ccnc2c(Cl)cccc12 [Example 133, 4-[3-(8-chloroquinolin-4-yl)-2-ethyl-7-(5-methyl-4H-1,2,4-triazol-3-yl)benzimidazol-5-yl]morpholine] | 21
17 | Cc1nnc(-c2cc(N3CCOCC3)cc3c2ncn3-c2ccnc3c(Cl)cccc23)[nH]1 [Example 134, 4-[3-(8-chloroquinolin-4-yl)-7-(5-methyl-4H-1,2,4-triazol-3-yl)benzimidazol-5-yl]morpholine] | 16

Row | SMILES | IC50 [nM]
18 | Cc1nc2c(-c3nnc(C4CC4)[nH]3)cc(N3CCOCC3)cc2n1-c1ccnc2c(Cl)cccc12 [Example 135, 4-[3-(8-chloroquinolin-4-yl)-7-(5-cyclopropyl-4H-1,2,4-triazol-3-yl)-2-methylbenzimidazol-5-yl]morpholine] | 43
19 | Cc1nc2c(-c3nnc(C(F)(F)F)[nH]3)cc(N3CCOCC3)cc2n1-c1ccnc2c(Cl)cccc12 [Example 136, 4-[3-(8-chloroquinolin-4-yl)-2-methyl-7-[5-(trifluoromethyl)-4H-1,2,4-triazol-3-yl]benzimidazol-5-yl]morpholine] | 48
20 | CCc1nnc(-c2cc(N3CCOCC3)cc3c2nc(C)n3-c2ccnc3c(Cl)cccc23)[nH]1 [Example 137, 4-[3-(8-chloroquinolin-4-yl)-7-(5-ethyl-4H-1,2,4-triazol-3-yl)-2-methylbenzimidazol-5-yl]morpholine] | 17
21 | Cc1nc2c(-c3nnc(C(C)C)[nH]3)cc(N3CCOCC3)cc2n1-c1ccnc2c(Cl)cccc12 [Example 138, 4-[3-(8-chloroquinolin-4-yl)-2-methyl-7-(5-propan-2-yl-4H-1,2,4-triazol-3-yl)benzimidazol-5-yl]morpholine] | 140
22 | CCc1nc2c(-c3nnc[nH]3)cc(N3CCOCC3)cc2n1-c1ccnc2c(F)cccc12 [Example 139, 4-[2-ethyl-3-(8-fluoroquinolin-4-yl)-7-(4H-1,2,4-triazol-3-yl)benzimidazol-5-yl]morpholine] | 14
23 | Cc1nc2c(-c3nnc[nH]3)cc(N3CCOCC3)cc2n1-c1ccnc2c(F)cccc12 [Example 140, 4-[3-(8-fluoroquinolin-4-yl)-2-methyl-7-(4H-1,2,4-triazol-3-yl)benzimidazol-5-yl]morpholine] | 13
24 | CCCc1nc2c(-c3nnc[nH]3)cc(N3CCOCC3)cc2n1-c1ccnc2c(F)cccc12 [Example 141, 4-[3-(8-fluoroquinolin-4-yl)-2-propyl-7-(4H-1,2,4-triazol-3-yl)benzimidazol-5-yl]morpholine] | 10
25 | Cc1nc2c(-c3nnc[nH]3)cc(N3CCOCC3)cc2n1-c1ccnc2c(F)c(F)ccc12 [Example 142, 4-[3-(7,8-difluoroquinolin-4-yl)-2-methyl-7-(4H-1,2,4-triazol-3-yl)benzimidazol-5-yl]morpholine] | 15
26 | Fc1ccc2c(-n3c(C4CC4)nc4c(-c5nnc[nH]5)cc(N5CCOCC5)cc43)ccnc2c1F [Example 143, 4-[2-cyclopropyl-3-(7,8-difluoroquinolin-4-yl)-7-(4H-1,2,4-triazol-3-yl)benzimidazol-5-yl]morpholine] | 84
27 | Fc1cccc2c(-n3c(C4CC4)nc4c(-c5nnc[nH]5)cc(N5CCOCC5)cc43)ccnc12 [Example 144, 4-[2-cyclopropyl-3-(8-fluoroquinolin-4-yl)-7-(4H-1,2,4-triazol-3-yl)benzimidazol-5-yl]morpholine] | 65
28 | Cc1nc2c(-c3nnc[nH]3)cc(N3CCOCC3)cc2n1-c1ccnc2c(F)cc(F)cc12 [Example 145, 4-[3-(6,8-difluoroquinolin-4-yl)-2-methyl-7-(4H-1,2,4-triazol-3-yl)benzimidazol-5-yl]morpholine] | 56
29 | CCCc1nc2c(-c3nnc[nH]3)cc(N3CCOCC3)cc2n1-c1ccnc2c(F)cc(F)cc12 [Example 146, 4-[3-(6,8-difluoroquinolin-4-yl)-2-propyl-7-(4H-1,2,4-triazol-3-yl)benzimidazol-5-yl]morpholine] | 101
30 | Fc1c(N2CCOCC2)cc(-c2nnc[nH]2)c2ncn(-c3ccnc4c(Cl)cccc34)c12 [Example 149, 4-(1-(8-chloroquinolin-4-yl)-7-fluoro-4-(4H-1,2,4-triazol-3-yl)-1H-benzo[d]imidazol-6-yl)morpholine] | 100
31 | Cc1nc2c(-c3nnc[nH]3)cc(N3CCOCC3)c(F)c2n1-c1ccnc2c(Cl)ccc(F)c12 [Example 150, 4-(1-(8-chloro-5-fluoroquinolin-4-yl)-7-fluoro-2-methyl-4-(4H-1,2,4-triazol-3-yl)-1H-benzo[d]imidazol-6-yl)morpholine] | 27
32 | Cc1nnc(-c2cc(N3CCOCC3)cc3c2nc(C)n3-c2ccnc3c(Cl)ccc(Cl)c23)[nH]1 [Example 151, 4-(1-(5,8-dichloroquinolin-4-yl)-2-methyl-4-(5-methyl-4H-1,2,4-triazol-3-yl)-1H-benzo[d]imidazol-6-yl)morpholine] | 44
33 | CCc1nc2c(-c3nnc(C)[nH]3)cc(N3CCOCC3)cc2n1-c1ccnc2c(F)ccc(F)c12 [Example 152, 4-(1-(5,8-difluoroquinolin-4-yl)-2-ethyl-4-(5-methyl-4H-1,2,4-triazol-3-yl)-1H-benzo[d]imidazol-6-yl)morpholine] | 59
34 | Cc1nc2c(-c3nnc[nH]3)cc(N3CCOCC3)cc2n1-c1c(F)cnc2ccccc12 [Example 153, 4-(1-(3-fluoroquinolin-4-yl)-2-methyl-4-(4H-1,2,4-triazol-3-yl)-1H-benzo[d]imidazol-6-yl)morpholine] | 120
